Here are results for six compounds from ChEMBL document CHEMBL1129799, “Homology modeling of metabotropic glutamate receptors. (mGluRs) structural motifs affecting binding modes and pharmacological profile of mGluR1 agonists and competitive antagonists” (J Med Chem, 1996).

What is called EC50 is the concentration giving half of the maximal effect. Lower therefore signals a more potent agent. As usually defined, the IC50 is the concentration that gives 50% inhibition. A low value points to greater potency in that assay.

T1 sequence (Q13255 whole entry): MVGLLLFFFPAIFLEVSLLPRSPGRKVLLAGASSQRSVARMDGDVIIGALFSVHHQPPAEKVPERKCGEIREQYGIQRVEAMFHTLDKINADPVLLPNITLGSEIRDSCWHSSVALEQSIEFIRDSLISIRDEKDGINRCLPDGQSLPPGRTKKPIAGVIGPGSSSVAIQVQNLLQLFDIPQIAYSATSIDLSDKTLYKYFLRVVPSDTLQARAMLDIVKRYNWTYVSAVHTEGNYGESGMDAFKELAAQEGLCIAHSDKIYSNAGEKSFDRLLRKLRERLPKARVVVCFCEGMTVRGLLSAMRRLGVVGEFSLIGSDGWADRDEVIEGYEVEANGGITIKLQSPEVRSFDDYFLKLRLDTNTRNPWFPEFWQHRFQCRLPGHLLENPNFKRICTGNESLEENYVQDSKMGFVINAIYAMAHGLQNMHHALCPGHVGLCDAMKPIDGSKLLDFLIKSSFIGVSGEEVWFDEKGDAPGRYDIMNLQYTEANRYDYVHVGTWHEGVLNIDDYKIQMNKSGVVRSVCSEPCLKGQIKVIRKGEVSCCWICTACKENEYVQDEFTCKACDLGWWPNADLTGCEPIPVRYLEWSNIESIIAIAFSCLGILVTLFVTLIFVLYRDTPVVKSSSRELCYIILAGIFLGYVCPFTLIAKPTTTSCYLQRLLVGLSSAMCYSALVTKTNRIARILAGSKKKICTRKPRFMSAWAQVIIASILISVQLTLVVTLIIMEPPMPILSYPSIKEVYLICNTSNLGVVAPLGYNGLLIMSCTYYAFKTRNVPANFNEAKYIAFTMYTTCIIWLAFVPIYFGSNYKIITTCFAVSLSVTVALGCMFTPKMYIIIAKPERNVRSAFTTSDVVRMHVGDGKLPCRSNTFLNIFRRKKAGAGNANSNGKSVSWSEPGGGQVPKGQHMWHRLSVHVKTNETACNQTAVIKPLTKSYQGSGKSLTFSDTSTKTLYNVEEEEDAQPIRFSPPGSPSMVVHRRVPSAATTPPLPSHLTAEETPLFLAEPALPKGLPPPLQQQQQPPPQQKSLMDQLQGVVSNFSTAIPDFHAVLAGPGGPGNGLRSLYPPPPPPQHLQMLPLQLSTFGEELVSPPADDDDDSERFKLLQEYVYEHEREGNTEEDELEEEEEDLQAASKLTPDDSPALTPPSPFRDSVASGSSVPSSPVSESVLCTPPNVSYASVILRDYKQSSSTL

One assay has as its target T1, Metabotropic glutamate receptor 1 (Homo sapiens, UniProt Q13255). Briefly: Effective concentration for half maximal stimulation of PI hydrolysis (mGluR1a).
For the compound `N[C@H](C(=O)O)c1cccc(O)c1`, the EC50 stood at 68 µM.

In turn, `N[C@H](C(=O)O)c1cc(=O)[nH]o1` [IBOTENIC ACID] had a 50% effective concentration (EC50) of 6 µM.

The target in another assay is T1, Metabotropic glutamate receptor 1. Description: Inhibitory concentration for half maximal inhibition of PI hydrolysis (mGluR1a).
The compound `N[C@H](C(=O)O)c1ccc(C(=O)O)c(O)c1` displayed a half-maximal inhibitory concentration (IC50) of 40 µM.

In the case of `N[C@H](C(=O)O)c1ccc(O)c(C(=O)O)c1`, the IC50 came to 290 µM.

The compound `NC1(C(=O)O)CCc2cc(C(=O)O)ccc21` (stereo unspecified) returned an IC50 of 214 µM.

As for `N[C@H](C(=O)O)c1ccc(C(=O)O)cc1`, it took 65 µM to reach half-maximal inhibition (IC50).
